Experimental data: ChEMBL document CHEMBL3885881, “DrugMatrix”

Species on record: Rattus norvegicus
Assay: DrugMatrix - Regimen: Daily Repeat
Format: toxicity, organism-based, Sprague-Dawley
Design: regimen Daily Repeat, gender Male, age 6-8 weeks
Conditions: in vivo, iv, 20 mg/kg, dose level Low, vehicle 100 % SALINE; for ABSOLUTE BASOPHIL / ABSOLUTE EOSINOPHIL / ABSOLUTE LYMPHOCYTE / ABSOLUTE MONOCYTE / ABSOLUTE SEGMENTED NEUTROPHIL / BASOPHIL / EOSINOPHIL / ERYTHROCYTE COUNT / HEMATOCRIT / HEMOGLOBIN / LEUKOCYTE COUNT / LYMPHOCYTE / MEAN CORPUSCULAR HEMOGLOBIN / MEAN CORPUSCULAR HEMOGLOBIN CONCENTRATION / MEAN CORPUSCULAR VOLUME / MONOCYTE / NEUTROPHIL / NUCLEATED RED BLOOD CELLS / PLATELET COUNT: tissue Blood; for ALANINE AMINOTRANSFERASE / ALBUMIN / ALKALINE PHOSPHATASE / ASPARTATE AMINOTRANSFERASE / BLOOD UREA NITROGEN / CARBON DIOXIDE / CHLORIDE / CHOLESTEROL / CREATINE PHOSPHOKINASE / CREATININE / GLUCOSE / LACTATE DEHYDROGENASE / LIPASE / PHOSPHORUS / POTASSIUM / SODIUM / TOTAL BILIRUBIN / TOTAL PROTEIN / URIC ACID: tissue Plasma

In the case of `CN(N=O)C(=O)N[C@@H](C=O)[C@@H](O)[C@H](O)[C@H](O)CO` [STREPTOZOCIN], the “ABSOLUTE BASOPHIL” value (72 h, time 3 day) is reported as 0 CELLS/uL, the “ABSOLUTE EOSINOPHIL” value (72 h, time 3 day) is reported as 193 CELLS/uL and the “ABSOLUTE LYMPHOCYTE” value (72 h, time 3 day) is reported as 10866.33 CELLS/uL. The “ABSOLUTE MONOCYTE” value (72 h, time 3 day) was 207.67 CELLS/uL, the “ABSOLUTE SEGMENTED NEUTROPHIL” value (72 h, time 3 day) was 899.67 CELLS/uL and the BASOPHIL (72 h, time 3 day) was 0%. The EOSINOPHIL (72 h, time 3 day) was 1.67%, the “ERYTHROCYTE COUNT” value (72 h, time 3 day) was 5.49 x10E6/uL and the HEMATOCRIT (72 h, time 3 day) was 33.93%. For the same compound, the HEMOGLOBIN (72 h, time 3 day) was 12.73 G/DL, the “LEUKOCYTE COUNT” value (72 h, time 3 day) was 12.17 x10E3/uL and the LYMPHOCYTE (72 h, time 3 day) was 89.33%. For the same compound, the “MEAN CORPUSCULAR HEMOGLOBIN” value (72 h, time 3 day) was 23.23 pg, the “MEAN CORPUSCULAR HEMOGLOBIN CONCENTRATION” value (72 h, time 3 day) was 37.5 G/DL and the “MEAN CORPUSCULAR VOLUME” value (72 h, time 3 day) was 61.77 fL. For the same compound, the MONOCYTE (72 h, time 3 day) was 1.67%, the NEUTROPHIL (72 h, time 3 day) was 7.33% and the “NUCLEATED RED BLOOD CELLS” value (72 h, time 3 day) was 0.33 /100WBC. The “PLATELET COUNT” value (72 h, time 3 day) was 1240.67 x10E3/uL, the “ALANINE AMINOTRANSFERASE” value (72 h, time 3 day) was 42 u/L and the ALBUMIN (72 h, time 3 day) was 4.1 G/DL. For the same compound, the “ALKALINE PHOSPHATASE” value (72 h, time 3 day) was 304.33 u/L, the “ASPARTATE AMINOTRANSFERASE” value (72 h, time 3 day) was 96.33 u/L and the “BLOOD UREA NITROGEN” value (72 h, time 3 day) was 16 mg/dL. For the same compound, the “CARBON DIOXIDE” value (72 h, time 3 day) was 25.33 mmol/L, the CHLORIDE (72 h, time 3 day) was 104 MEQ/L and the CHOLESTEROL (72 h, time 3 day) was 67 mg/dL. The “CREATINE PHOSPHOKINASE” value (72 h, time 3 day) was 595 u/L, the CREATININE (72 h, time 3 day) was 0.25 mg/dL and the GLUCOSE (72 h, time 3 day) was 148.67 mg/dL. For the same compound, the “LACTATE DEHYDROGENASE” value (72 h, time 3 day) was 798.67 u/L, the LIPASE (72 h, time 3 day) was 9.33 u/L and the PHOSPHORUS (72 h, time 3 day) was 11.97 mg/dL. The POTASSIUM (72 h, time 3 day) was 6.35 MEQ/L, the SODIUM (72 h, time 3 day) was 143.3 MEQ/L and the “TOTAL BILIRUBIN” value (72 h, time 3 day) was 0.17 mg/dL. The “TOTAL PROTEIN” value (72 h, time 3 day) was 5.4 G/DL, the “URIC ACID” value (72 h, time 3 day) was 1.33 mg/dL and the “ABSOLUTE BASOPHIL” value (120 h, time 5 day) was 0 CELLS/uL. The “ABSOLUTE EOSINOPHIL” value (120 h, time 5 day) was 64 CELLS/uL, the “ABSOLUTE LYMPHOCYTE” value (120 h, time 5 day) was 13587.67 CELLS/uL and the “ABSOLUTE MONOCYTE” value (120 h, time 5 day) was 429.67 CELLS/uL. The “ABSOLUTE SEGMENTED NEUTROPHIL” value (120 h, time 5 day) was 1452 CELLS/uL, the BASOPHIL (120 h, time 5 day) was 0% and the EOSINOPHIL (120 h, time 5 day) was 0.33%. The “ERYTHROCYTE COUNT” value (120 h, time 5 day) was 5.57 x10E6/uL, the HEMATOCRIT (120 h, time 5 day) was 35.7% and the HEMOGLOBIN (120 h, time 5 day) was 13.4 G/DL. The “LEUKOCYTE COUNT” value (120 h, time 5 day) was 15.53 x10E3/uL, the LYMPHOCYTE (120 h, time 5 day) was 87.33% and the “MEAN CORPUSCULAR HEMOGLOBIN” value (120 h, time 5 day) was 24.07 pg. The “MEAN CORPUSCULAR HEMOGLOBIN CONCENTRATION” value (120 h, time 5 day) was 37.53 G/DL, the “MEAN CORPUSCULAR VOLUME” value (120 h, time 5 day) was 64.17 fL and the MONOCYTE (120 h, time 5 day) was 2.67%. The NEUTROPHIL (120 h, time 5 day) was 9.67%, the “NUCLEATED RED BLOOD CELLS” value (120 h, time 5 day) was 0 /100WBC and the “PLATELET COUNT” value (120 h, time 5 day) was 1260.33 x10E3/uL. For the same compound, the “ALANINE AMINOTRANSFERASE” value (120 h, time 5 day) was 54.33 u/L, the ALBUMIN (120 h, time 5 day) was 4 G/DL and the “ALKALINE PHOSPHATASE” value (120 h, time 5 day) was 308.67 u/L. For the same compound, the “ASPARTATE AMINOTRANSFERASE” value (120 h, time 5 day) was 82.33 u/L, the “BLOOD UREA NITROGEN” value (120 h, time 5 day) was 21 mg/dL and the “CARBON DIOXIDE” value (120 h, time 5 day) was 26.33 mmol/L. For the same compound, the CHLORIDE (120 h, time 5 day) was 103.67 MEQ/L, the CHOLESTEROL (120 h, time 5 day) was 70.33 mg/dL and the “CREATINE PHOSPHOKINASE” value (120 h, time 5 day) was 420.67 u/L. The CREATININE (120 h, time 5 day) was 0.21 mg/dL, the GLUCOSE (120 h, time 5 day) was 181.67 mg/dL and the “LACTATE DEHYDROGENASE” value (120 h, time 5 day) was 60.33 u/L. For the same compound, the LIPASE (120 h, time 5 day) was 7.67 u/L, the PHOSPHORUS (120 h, time 5 day) was 12.23 mg/dL and the POTASSIUM (120 h, time 5 day) was 6.34 MEQ/L. For the same compound, the SODIUM (120 h, time 5 day) was 146.17 MEQ/L, the “TOTAL BILIRUBIN” value (120 h, time 5 day) was 0.17 mg/dL and the “TOTAL PROTEIN” value (120 h, time 5 day) was 6.03 G/DL. For the same compound, the “URIC ACID” value (120 h, time 5 day) was 1.87 mg/dL.
